Patent publication US12686971B2, “Method of controlling enzymatic activities and tools related thereto” (KEMIRA OYJ, priority 2020, dated 2026)

What was measured:
ATP = ATP measured from pulp bottles; assay type: cell-based; settings: after 2 d
Procedure: (§1) 50 g liner board (from two different mills: 50% from a mill using ~50% unbleached kraft pulp and ~50% recycled fiber and 50% from a mill using 100% recycled fiber) was re-pulped with process water from a third mill using recycled fiber. The final consistency of the pulp was 1.0%. The pulp suspension was divided into 12 bottles and starch suspension (native potato starch) was added into each bottle, so that the concentration of added starch was 1.5 g/l. Six of the bottles (numbers 1-6) were put into an incubator with no other treatment. The other 6 bottles (numbers 7-12) were first pasteurized (1 h, +80° C.) in order to inactivate any enzymes present. After that, the bottles were treated with a biocide (50 mg/l monochloramine, as active chlorine). After this, all 12 bottles were kept at +40° C. with shaking for 4 days. During the incubation, 10 mg/l monochloramine was added daily into the bottles 7-12). At the beginning of the incubation, the pH of the pulp was 6.0, redox −46 mV and conductivity 4.8 mS/cm.
After 2 d, ATP was measured from each bottle and was 1000-fold higher in non-treated than treated bottles (average 71 000 pg/ml, st.dev. 3800, vs. average 70, st.dev. 7 pg/ml, respectively).

cellulase = assay: Cellulase activity of RCF pulp samples, Enzchek Cellulase substrate; assay type: biochemical
Procedure: Cellulase activity expressed here as “mU/ml” may be obtained using Enzchek Cellulase substrate (Life Technologies, part of Thermo Fisher Scientific), using the manufacturer's instructions and measurement protocol where sodium acetate buffer is adjusted to pH 6.0 and the samples are diluted 1/10 to minimize inhibition and quenching by fibers.
For example, in soil research microbial cellulolytic potential can be tested with agar plate cultivation, but there are also commercially available substrates for measurement of cellulase activity directly from aqueous samples (cellulase production organism cultivation broths/extracts).
According to the supplier, the assay limit of detection is ~110% of the signal for blank (buffer instead of sample). In addition, standard curve was measured as recommended with Trichoderma mold cellulase (at recommended pH 5.0), but in addition also with Bacillus amyloliquefaciens cellulase (Megazyme; at recommended pH 6.0). Both gave near-linear standard curve with good sensitivity.
(§2) Short-term and long-term effect of biocides on cellulase activity of process samples was tested with laboratory incubations of recycled fiber (RCF) pulp samples at 40° C.

Aerobic bacteria = assay: Culturable aerobic bacterial count in pulp; assay type: cell-based
Procedure: as §2
(§3) 50 g liner board was re-pulped with process water from a mill using recycled fiber. The final consistency of the pulp was 1.0% and the liner was from a mill using ~50% unbleached kraft pulp and ~50% recycled fiber. This mill uses about 6 kg/ton wet-end starch in the production of the liner. The pulp suspension was divided into 12 bottles. Six of the bottles were put into an incubator with no other treatment. The other 6 bottles were first pasteurized (1 h, +80° C.) in order to inactivate any enzymes present. After that, the bottles were treated with a combination of a biocide (Mixture of DBNPA, bronopol and CMIT/MIT, 100 mg/l as active substance) and either zinc or zinc comprising compound (25 mg/l as Zn^2+). After this, all 12 bottles were kept at +40° C. with shaking for 3 days. At the beginning of the incubation, the pH of the pulp was 6.64, redox+160 mV and conductivity 5.46 mS/cm.
as §1, with “After this, all 12 bottles were kept at +40° C. with shaking for 4 days. During the incubation, 10 mg/l monochloramine was added daily into the bottles 7-12).” left out

Anaerobic bacteria = assay: Anaerobic bacterial count in pulp; assay type: cell-based; settings: pasteurized 1 h +80° C., 50 mg/l monochloramine then 10 mg/l daily, 4 d at +40° C., n = 6
Procedure: as §3
After 3 d pH, ORP, and total and cellulolytic bacterial amounts were measured from each bottle.
50 g liner board (from two different mills: 50% from a mill using ~50% unbleached kraft pulp and ~50% recycled fiber and 50% from a mill using 100% recycled fiber) was re-pulped with process water from a third mill using recycled fiber. The final consistency of the pulp was 1.0%. […]
After 4 d pH, ORP, bacterial amounts and cellulase activity were measured from each bottle.

[1] = RCF pulp, MCA Day 1 50 mg/l, Day 2 and 3 10 mg/l, Days 4-8 no addition
[2] = pasteurized 1 h +80° C., 50 mg/l monochloramine then 10 mg/l daily, 4 d at +40° C., n = 6

For NCl [MCA, monochloramine], the “ATP higher in non-treated than treated bottles” value (ATP) was 1000 fold, the “ATP, average” value (ATP; treated bottles, 50 mg/l monochloramine then 10 mg/l daily, +40° C.) was 70 pg/mL and the “cellulase activity in process sample” value (cellulase; 5 d after the last biocide dosage, corresponding to 134% of the blank) was ~ 0.2 mU/ml. The “Cellulase activity at 7 d, % compared to blank” value (cellulase; [1]) was 134%, the “Cellulase activity, Average” value (cellulase; [2]) was 0.44 mU/ml and the “reduction of total CFUs” value (Aerobic bacteria; 3-day experiment, daily dosages of MCA) was 5 orders of magnitude. The “Aerobic bacteria, 3 d, cfu/ml” value (Aerobic bacteria; RCF pulp, MCA Day 1 50 mg/l, Day 2 and 3 10 mg/l) was 6000 cfu/ml, the “Aerobic bacteria, 6 d, cfu/ml” value (Aerobic bacteria; [1]) was 30 000 000 cfu/ml and the “Aerobic bacteria, Average” value (Aerobic bacteria; [2]) was 8 700 cfu, ml. For the same molecule, the “Anaerobic bacteria, Average” value (Anaerobic bacteria) was 970 cfu/ml.
